{"source": "patent US20100063006A1", "about": "“COMPOSITIONS AND METHODS TO REDUCE FAT AND RETRACT SKIN” (American Network of Lipolysis, LLC, priority 2006, published 2010)", "key": {"[1]": {"system": "cultured human adipocytes", "test": "In vitro lipolysis assays (basal lipolysis rate, triglyceride detection) in cultured human adipocytes", "format": "cell-based", "conditions": "adipocytes incubated 12-14 hours in test composition; FIG. 8", "protocol": "Lipolysis induced in cultured human adipocytes by certain embodiments of the inventive injectable compositions for fat reduction and their constituent components was assayed in vitro under controlled conditions.\nCells utilized for the in vitro assays were obtained from five different dermolipectomy specimens. Preadipocytes were cultured in differentiation media over 14 days to produce adipocytes incubated between 12-14 hours in each of 12 test solutions. Each of the cell lines incubated in each of the 12 test solutions were split and introduced into four in vitro assays.\nCell lines were incubated in each of the following compositions: • 1. Phosphatidylcholine 25.6 milligrams per milliliter (mg/mL)/Deoxycholate 24.8 mg/mL, Benzyl Alcohol 25.6 mg/mL, ISUPREL 8 mg/mL, and Ropivacaine 5 mg/mL. • 2. Phosphatidylcholine 24.0 mg/mL/Deoxycholate 19.8 mg/mL, Benzyl Alcohol 25.6 mg/mL, ISUPREL 8 mg/mL, and Ropivacaine 5 mg/mL. • 3. Phosphatidylcholine 50.0 mg/mL/Deoxycholate 42.0 mg/mL. • 4. Deoxycholate 10.0 mg/mL. • 5. Phosphatidylcholine 45.0 mg/mL/Deoxycholate 42.0 mg/mL. • 6. Phosphatidylcholine 53.0 mg/mL/Deoxycholate 42.0 mg/mL. • 7. Phosphatidylcholine 50 mg/mL in mineral oil. • 8. Deoxycholate 24.8 mg/mL. • 9. Benzyl alcohol 25.6 mg/mL. • 10. ISUPREL 8.0 mg/mL. • 11. Ropivacaine 5.0 mg/mL. • 12. Vitamin B complex and pentoxyffline • 13. Control--Saline Solution. […]\nB. Basal Lipolysis Rate. Free lipid in collected supernatant was quantified using a Lipolyis assay available from Zan-Bio, Catalog No. LIP-1 to measure released glycerol. […] The quinoneimine dye has an absorbance maximum at 540 nanometers. The increase in absorbance at 540 nanometers is directly proportionate to glycerol concentration in the supernatant.\nD. Triglyceride Detection. The amount of triglyceride was quantified by measurement of glycerol released by cell lysis into the supernatant utilizing a triglyceride assay kit available from Zen-Bio, Catalog No. TG-1-NC. There is a molar equivalent of triglyceride for each mole of glycerol detected."}, "[2]": {"conditions": "nausea, vomiting, diarrhea, flushing, sweating, bradycardia; cited from earlier work"}}, "note": "Counter-ions that a name gives are not always drawn.", "data": [{"compound": "OCc1ccccc1", "note": "[Test composition no. 9, Benzyl alcohol]", "values": [{"measurement": "lipolytic action (free lipids) compared with the saline control", "setting": "[1]", "result": "do not appear to have lipolytic action greater than the control"}]}, {"compound": "CC(C)NCC(O)c1ccc(O)c(O)c1", "note": "(stereo not shown) [Test composition no. 10, isoproterenol hydrochloride]", "values": [{"measurement": "lipolytic action (free lipids) compared with the saline control", "setting": "[1]", "result": "do not appear to have lipolytic action greater than the control"}]}, {"compound": "CCCN1CCCC[C@H]1C(=O)Nc1c(C)cccc1C", "note": "[Test composition no. 11, Ropivacaine]", "values": [{"measurement": "lipolytic action (free lipids) compared with the saline control", "setting": "[1]", "result": "do not appear to have lipolytic action greater than the control"}]}, {"compound": "phosphatidylcholine [PC]", "values": [{"measurement": "total administered amount of PC above which cholinergic side effects occur", "setting": "[2]", "result": "exceeds 2000 mg per treatment"}]}]}
